According to US12564595B2, “Prophylactic and therapeutic pharmaceutical agent for HIV infectious diseases characterized by comprising combination of integrase inhibitor and anti-HIV agent” (Shionogi & Co., Ltd., priority 2019, dated 2026):

Legend:
[1] = tested on: HIV mutant strain 1 (E138K/G140S/Q148H/N155H); assay: Test Example 2: resistance evaluation test (HeLa-CD4 reporter), mutant strain 1; format: cell-based; details: FC=EC50 of mutant strain/EC50 of wild strain; HeLa-CD4 cells
In short: (§1)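 HeLa-CD4 reporter cells were infected with wild-type or mutant HIV in the presence of serially diluted compound and cultured 3 days. Cell lysates were read by chemiluminescent reporter assay after about 1 h at room temperature. Fold change was calculated as mutant EC50 divided by wild-type EC50.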

[2] = tested on: HIV; assay: microbe, parasite or virus in culture; format: cell-based; details: Human immunodeficiency virus 1, MT4, 96 h, read-out: EC50 (50% HIV inhibition concentration), MT-4 cells, HIV, cultured four days, MTT; compounds of formula (I) of (A)
Experimental: A serial dilution series of test samples was prepared in 96-well microplates (50 μL/well).
100 μL/well in each case were dispensed onto plates having test samples of 2.5×10^5/mL MT-4 cell suspension, and HIV virus solution was then dispensed thereto in the amount of 50 μL/well. Mixing was performed using a plate mixer and culturing was performed for four days in a CO2 incubator. MTT (3-(4,5-dimethylthiazol-2-yl)-2,5-diphenyltetrazolium bromide) liquid was dispensed into each well in the amount of 30 μL in each case. The reaction was conducted for 1 h in a CO2 incubator. 150 μL of supernatant were removed from each well, taking care not to aspirate any cells. 150 μL of cell solution were added, and thorough mixing was performed with a plate mixer until all the cells had been dissolved. The optical absorbance of the mixed plates was measured at two wavelengths: 560 nm/690 nm, with a microplate reader.

[3] = tested on: HIV mutant strain 2 (E92Q/E138T/G140S/Q148H); assay: Test Example 2: resistance evaluation test (HeLa-CD4 reporter), mutant strain 2; format: cell-based; details: FC=EC50 of mutant strain/EC50 of wild strain; HeLa-CD4 cells
In short: as §1

[4] = Test Example 8: metabolic stability test; format: in vitro ADME, human; details: pooled human liver microsomes, 30 min at 37° C., NADPH, compound concentration 0.5 μmol/L
In short: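 Pooled human liver microsomes (0.5 mg protein/mL, Tris-HCl pH 7.4) incubated with compound and 1 mmol/L NADPH for 0 or 30 min at 37° C. After methanol/acetonitrile quench, remaining parent was quantified by LC/MS/MS or SPE/MS and expressed as % of the 0 min amount.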

[5] = molecular target: T1, voltage-gated sodium channel (Nav 1.5 channel) (Homo sapiens, UniProt Q14524); assay: Test Example 14: Nav test (patch clamp, HEK cells); format: cell-based; details: HEK cells expressing Nav 1.5 channel, whole cell patch clamp
T1 construct: expressed in transfected cells; host or cells: HEK cells
T1 sequence (Q14524 whole entry): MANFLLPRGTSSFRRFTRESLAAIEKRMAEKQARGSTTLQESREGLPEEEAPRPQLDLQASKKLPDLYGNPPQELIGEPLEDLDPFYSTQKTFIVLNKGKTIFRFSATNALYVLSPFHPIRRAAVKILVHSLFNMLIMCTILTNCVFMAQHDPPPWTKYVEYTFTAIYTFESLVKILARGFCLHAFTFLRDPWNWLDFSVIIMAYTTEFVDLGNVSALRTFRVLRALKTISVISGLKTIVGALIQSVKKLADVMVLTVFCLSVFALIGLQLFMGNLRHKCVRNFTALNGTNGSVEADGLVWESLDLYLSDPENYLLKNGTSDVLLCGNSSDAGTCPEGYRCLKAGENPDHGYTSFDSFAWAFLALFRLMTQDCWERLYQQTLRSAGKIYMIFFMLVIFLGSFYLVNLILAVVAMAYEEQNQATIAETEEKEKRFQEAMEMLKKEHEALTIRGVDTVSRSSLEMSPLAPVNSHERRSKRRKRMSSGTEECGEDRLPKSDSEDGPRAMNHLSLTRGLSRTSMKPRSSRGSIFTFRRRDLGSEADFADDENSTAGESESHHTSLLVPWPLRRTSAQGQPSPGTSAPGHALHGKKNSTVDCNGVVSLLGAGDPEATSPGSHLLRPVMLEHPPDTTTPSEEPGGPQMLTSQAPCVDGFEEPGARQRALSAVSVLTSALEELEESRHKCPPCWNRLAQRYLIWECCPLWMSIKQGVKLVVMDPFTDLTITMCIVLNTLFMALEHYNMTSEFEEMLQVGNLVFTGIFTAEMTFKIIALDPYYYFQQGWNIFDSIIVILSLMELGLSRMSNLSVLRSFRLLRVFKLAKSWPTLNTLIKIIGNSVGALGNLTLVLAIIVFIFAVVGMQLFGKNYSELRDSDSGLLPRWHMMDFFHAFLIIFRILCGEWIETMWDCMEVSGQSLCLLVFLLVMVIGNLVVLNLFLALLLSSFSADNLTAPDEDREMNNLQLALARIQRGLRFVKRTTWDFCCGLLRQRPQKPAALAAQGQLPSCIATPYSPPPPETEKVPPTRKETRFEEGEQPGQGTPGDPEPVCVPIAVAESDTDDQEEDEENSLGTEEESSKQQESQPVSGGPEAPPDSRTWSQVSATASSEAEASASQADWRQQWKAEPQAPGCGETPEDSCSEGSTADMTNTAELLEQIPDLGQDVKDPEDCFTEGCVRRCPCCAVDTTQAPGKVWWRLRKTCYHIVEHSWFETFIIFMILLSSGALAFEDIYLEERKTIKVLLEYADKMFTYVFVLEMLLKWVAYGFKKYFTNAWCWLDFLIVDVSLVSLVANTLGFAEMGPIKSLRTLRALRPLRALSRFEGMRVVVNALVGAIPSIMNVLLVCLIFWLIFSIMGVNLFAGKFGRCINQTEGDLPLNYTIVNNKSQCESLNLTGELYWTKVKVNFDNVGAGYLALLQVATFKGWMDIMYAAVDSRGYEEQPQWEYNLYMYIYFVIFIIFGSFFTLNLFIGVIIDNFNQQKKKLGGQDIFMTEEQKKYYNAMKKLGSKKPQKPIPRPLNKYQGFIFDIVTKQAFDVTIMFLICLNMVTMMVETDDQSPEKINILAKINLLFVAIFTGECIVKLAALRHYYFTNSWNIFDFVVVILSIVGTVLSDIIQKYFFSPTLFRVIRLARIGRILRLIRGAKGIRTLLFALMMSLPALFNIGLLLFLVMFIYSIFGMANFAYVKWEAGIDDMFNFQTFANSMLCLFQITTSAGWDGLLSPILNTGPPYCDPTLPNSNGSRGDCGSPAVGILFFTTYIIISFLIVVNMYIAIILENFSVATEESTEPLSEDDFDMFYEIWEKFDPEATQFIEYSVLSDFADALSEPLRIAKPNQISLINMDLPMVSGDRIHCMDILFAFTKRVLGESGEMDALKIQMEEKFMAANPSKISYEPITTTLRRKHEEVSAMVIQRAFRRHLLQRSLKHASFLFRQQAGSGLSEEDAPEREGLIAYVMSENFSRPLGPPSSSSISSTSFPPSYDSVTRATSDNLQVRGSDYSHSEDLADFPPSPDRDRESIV
Experimental: Using a fully automatic patch clamp system (QPatch: Sophion Bioscience A/S), by the whole cell patch clamp method, the cells were maintained at a membrane potential of −100 mV and the induced INa when a −10 mV depolarization stimulus was applied for 20 msec was recorded. […] From the INa obtained, using analysis software (QPatch: Sophion Bioscience A/S), the absolute value of the maximum peak current was measured, with reference to the current value at the maintained membrane potential.

[6] = tested on: HIV; assay: Test Example 3: test for confirmation of combined use effect; format: cell-based; set-up: key to D value (dosewise additivity value): <-0.1 synergy, -0.1 to 0.1 additive, >0.1 antagonism
From the text: The two compounds in respect of which the effect of combined use was desired to be examined were mixed in various ratios, and the anti-HIV activity (50% HIV inhibiting concentration) for each combination was found by the method of test example 1. […] A brief description of the method of calculating the D value is given below.
The D value that is found by evaluating the anti-HIV activity of respective combinations of M concentrations of compound X1 and N concentrations of compound X2 is calculated by the following mathematical expression 1.
The effect of combined use was evaluated in terms of the D value in accordance with the following criteria • −0.5 to −0.2: strong synergetic effect • −0.2 to −0.1: weak synergetic effect • […]: additive synergetic effect • 0.1 to 0.2: weak antagonism • 0.2 to 0.5: strong antagonism

[7] = tested on: HIV; assay: Test Example 16: anti-HIV activity in the presence of human serum protein (MT-4 cells); format: cell-based; details: 100% extrapolation value, PS=4×(EC50 with 25% human serum protein/EC50 with no human serum protein)
Experimental: A stage dilution series of the test samples was created on a 96-well microplate (50 μL/well).
Aliquots of human serum protein solution (human serum protein concentration 50%) were dispensed in the amount of 100 μL/well to a 96-well microplate containing the test sample. This was then left to stand for 1 h at room temperature. Culture medium in the amount of 100 μL/well in each case was dispensed to a serum-free plate for control purposes. Aliquots of MT-4 cells in the amount of 3.0×10^5/well and HIV virus liquid in the amount of 3 μL/well were mixed for the necessary number of wells and reacted for 1 h at 37° C. After the reaction, the cell suspension was centrifuged and the supernatant discarded; aliquots of infected cells were distributed to culture medium in the amount of 50 μL/well and were dispensed in the amount of 50 μL/well in each case into the wells of a 96-well microplate containing test samples and human serum protein (human serum protein concentration: 25%). Mixing was performed using a plate mixer and culturing was performed for four days with a CO2 incubator. […] MTT(3-(4, 5-dimethylthiazol-2-yl)-2, 5-diphenyltetrazolium bromide) liquid in the amount of 30 μL was dispensed to each of the wells. The reaction was performed for 1 h in a CO2 incubator. 150 μL supernatant was removed to avoid aspirating cells from the wells. 150 μL of cell solution was added and thorough mixing was performed, using a plate mixer, until all the cells were dissolved. The optical absorbance on the mixed plate was measured at two wavelengths, namely, 560 nm/690 nm, using a microplate reader.
Next, the potency shift (PS) was calculated, using the following formula. The PS is the value of the human serum protein concentration, extrapolated to 100%.

[8] = combination with compound (B) Compound C (CAI)
[9] = combination with compound (B) Darunavin (PI)
[10] = combination with compound (B) Darunavir (PI)
[11] = combination with compound (B) GS-6207 (CAI)
[12] = combination with compound (B) GSK2838232 (maturation inhibitor)
[13] = combination with compound (B) I′-189 (INLAI)
[14] = combination with compound (B) Lilpiperine (polymerase inhibitor)
[15] = combination with compound (B) Ramipzin (3TC) (polymerase inhibitor)
[16] = combination with compound (B) Rilpivirine (polymerase inhibitor)
[17] = combination with compound (B) VM-1500 (polymerase inhibitor)

Row | SMILES | FC in respect of mutant strain 1 (E138K/G140S/Q148H/N155H) [1] | EC50 [2] | FC in respect of mutant strain 2 (E92Q/E138T/G140S/Q148H) [3] | Remaining percentage [4] | ratio of maximum peak current (INa) on application of compound to that on application of medium [5] | D value (dosewise additivity value) [6, 8] | effect of combined use [6, 8] | D value (dosewise additivity value) [6, 9] | effect of combined use [6, 10] | D value (dosewise additivity value) [6, 11] | effect of combined use [6, 11] | D value (dosewise additivity value) [6, 12] | effect of combined use [6, 12] | effect of combined use [6, 14] | D value (dosewise additivity value) [6, 15] | effect of combined use [6, 15] | D value (dosewise additivity value) [6, 16] | potency shift (PS) in the presence of human serum protein [7] | also measured
1 | CCN1C(=O)c2c(O)c(=O)c(-c3nnc(Cc4cc(F)c(F)cc4F)s3)cn2N2CCCC[C@@H]12 [Compound I-022] | 23 | 4.8 nM | 46 | 72.2% | 97.1% |  |  |  |  |  |  |  |  |  |  |  |  |  | 
2 | CCN1C(=O)c2c(O)c(=O)c(-c3nnc(Cc4ccc(F)cc4F)s3)cn2N2C[C@@H](C)C[C@@H]12 [II-109] | 4.1 | 1.2 nM | 2.5 | 98.3% | 93.3% | 0.071 | Additive (−0.1 to −0.1: additive synergetic effect) | −0.143 | Weak synergy (−0.2 to −0.1: weak synergetic effect) | −0.059 | Additive (−0.1 to −0.1: additive synergetic effect) | −0.054 | Additive (−0.1 to −0.1: additive synergetic effect) | Additive (−0.1 to −0.1: additive synergetic effect) | −0.145 | Weak synergy (−0.2 to −0.1: weak synergetic effect) | −0.096 | 56 | D value (dosewise additivity value) [6, 13]: 0.056; effect of combined use [6, 13]: Additive (−0.1 to −0.1: additive synergetic effect); D value (dosewise additivity value) [6, 17]: −0.094; effect of combined use [6, 17]: Additive (−0.1 to −0.1: additive synergetic effect)
3 | C[C@H]1CC[C@H]2N(C)C(=O)c3c(O)c(=O)c(-c4nnc(Cc5ccc(F)cc5F)s4)cn3N2C1 [II-120] | 5.8 | 0.25 nM | 8 | 95.5% | 78.8% |  |  |  |  |  |  |  |  |  |  |  |  |  | 
4 | CCN1C(=O)c2c(O)c(=O)c(-c3nnc(Cc4ccc(F)cc4)s3)cn2N2[C@H](COC)CC[C@@H]12 [II-118] | 20 | 0.96 nM | 31 | 92.4% | 86.2% |  |  |  |  |  |  |  |  |  |  |  |  |  | 
5 | CCN1C(=O)c2c(O)c(=O)c(-c3nnc(Cc4c(F)cc(F)cc4F)s3)cn2N2CCOC[C@@H]12 [II-106] | 15 | 0.52 nM | 20 | 95.3% | 109% |  |  |  |  |  |  |  |  |  |  |  |  |  | 
6 | COC[C@@H]1CC[C@H]2N(C)C(=O)c3c(O)c(=O)c(C(=O)NCc4cccc(Cl)c4F)cn3N12 [II-026] | 10 |  | 6.9 | 86% | 79% | 0.043 | Additive (−0.1 to −0.1: additive synergetic effect) | −0.137 | Weak synergy (−0.2 to −0.1: weak synergetic effect) | −0.043 | Additive (−0.1 to −0.1: additive synergetic effect) | −0.061 | Additive (−0.1 to −0.1: additive synergetic effect) | Additive (−0.1 to −0.1: additive synergetic effect) | −0.232 | Strong synergy (−0.5 to −0.2: strong synergetic effect) | −0.077 | 364 | D value (dosewise additivity value) [6, 13]: 0.056; effect of combined use [6, 13]: Additive (−0.1 to −0.1: additive synergetic effect); D value (dosewise additivity value) [6, 17]: −0.155; effect of combined use [6, 17]: Weak synergy (−0.2 to −0.1: weak synergetic effect)
7 | CN1C(=O)c2c(O)c(=O)c(-c3nnc(Cc4ccc(F)cc4F)s3)cn2N2CCCC[C@@H]12 [II-098] | 8.8 | 0.62 nM | 12 | 109% | 96.7% |  |  |  |  |  |  |  |  |  |  |  |  |  | 
8 | CCN1C(=O)c2c(O)c(=O)c(-c3nnc(Cc4ccc(F)cc4F)s3)cn2N2[C@H](COC)CC[C@@H]12 [II-110] | 8.2 | 0.13 nM | 11 | 96.5% | 89.3% | 0.075 | Additive (−0.1 to −0.1: additive synergetic effect) | −0.058 | Additive (−0.1 to −0.1: additive synergetic effect) | 0.025 | Additive (−0.1 to −0.1: additive synergetic effect) | −0.048 | Additive (−0.1 to −0.1: additive synergetic effect) | Additive (−0.1 to −0.1: additive synergetic effect) | −0.145 | Weak synergy (−0.2 to −0.1: weak synergetic effect) | −0.073 |  | 
9 | CCN1C(=O)c2c(O)c(=O)c(C(=O)NCc3ccc(F)cc3F)cn2N2C[C@@H](C)C[C@@H]12 [II-045] | 19 |  | 21 | 96% |  |  |  |  |  |  |  |  |  |  |  |  |  | 236 | 
10 | CCN1C(=O)c2c(O)c(=O)c(-c3nnc(Cc4c(F)cc(F)cc4F)s3)cn2N2[C@H](COC)CC[C@@H]12 [II-117] | 10 | 0.62 nM | 11 | 93.4% | 88.8% |  |  |  |  |  |  |  |  |  |  |  |  |  | 
